The subject of one assay is J774.A1. Nature of the assay: Cytotoxicity against mouse J774A1 cells by trypan blue exclusion assay. The assay is classed as cell-based.
Assay [1] has as its system Staphylococcus aureus. The assay can be described thus: Antibacterial activity against Staphylococcus aureus ATCC 29213. The assay is classed as functional.
The subject of assay [2] is Staphylococcus aureus. The assay can be described thus: Antibacterial activity against methicillin-resistant Staphylococcus aureus MW2. The assay is classed as functional.
The test system of the next assay is Enterococcus faecium. Nature of the assay: Antibacterial activity against vancomycin-resistant Enterococcus faecium VRE1. The assay is classed as functional.
Another assay deals with Enterococcus faecalis. The assay can be described thus: Antibacterial activity against Enterococcus faecalis ATCC 29212. The assay is classed as functional.
The subject of the next assay is Streptococcus pyogenes. The assay can be described thus: Antibacterial activity against Streptococcus pyogenes UWL. The assay is classed as functional.
The next assay has as its system Escherichia coli. The assay can be described thus: Antibacterial activity against Escherichia coli. The assay is classed as functional, organism-based.
For another assay, the system named is Pseudomonas aeruginosa. Nature of the assay: Antibacterial activity against Pseudomonas aeruginosa. The assay is classed as functional, organism-based.

For six compounds, IC50, MIC and Activity results are on record in ChEMBL document CHEMBL2146412, “Antibacterial spirobisnaphthalenes from the North American cup fungus Urnula craterium” (J Nat Prod, 2012).

Values after ≈ are worked out from the molar mass of the structure shown. Active and inactive are the calls of the source. No cut-off for these calls is given here.

In the case of `COc1ccc(C[C@H](N)C(=O)N[C@H]2[C@@H](O)[C@H](n3cnc4c(N(C)C)ncnc43)O[C@@H]2CO)cc1` [PUROMYCIN], the 50% inhibitory concentration (IC50) with J774.A1 is 10 µM. That is a double-digit micromolar value.
Regarding `CN(C)[C@@H]1C(O)=C(C(N)=O)C(=O)[C@@]2(O)C(O)=C3C(=O)c4c(O)cccc4[C@@](C)(O)[C@H]3C[C@@H]12` [TETRACYCLINE], the minimal inhibitory concentration (MIC) turned out to be 0.25 µg/mL (≈ 0.563 µM) against Staphylococcus aureus [1]; 0.125 µg/mL (≈ 0.281 µM) in the assay on Staphylococcus aureus [2]; 4 µg/mL (≈ 9 µM) against Enterococcus faecium; 16 µg/mL (≈ 36 µM) with Enterococcus faecalis; 0.125 µg/mL (≈ 0.281 µM) in the assay on Streptococcus pyogenes.
In the case of `O=C1C=C[C@]2(O[C@@H]3c4c2ccc(O)c4C(=O)[C@@H]2O[C@H]32)c2cccc(O)c21` [URNUCRATIN A], the MIC against Staphylococcus aureus [1] amounted to 2 µg/mL (≈ 5.74 µM); with Staphylococcus aureus [2], 2 µg/mL (≈ 5.74 µM); against Enterococcus faecium, 1 µg/mL (≈ 2.87 µM); with Enterococcus faecalis, 0.5 µg/mL (≈ 1.44 µM); against Streptococcus pyogenes, 0.5 µg/mL (≈ 1.44 µM). Also, the result in the assay with Escherichia coli and in the assay with Pseudomonas aeruginosa was inactive. In addition, the concentration for half-maximal inhibition (IC50) in the assay with J774.A1 is greater than 100 µM.
For `COc1cccc2c1C(=O)C=C[C@]21O[C@@H]2c3c1ccc(O)c3C(=O)[C@@H]1O[C@H]21` [URNUCRATIN B], the MIC with Staphylococcus aureus [1] amounted to 8 µg/mL (≈ 22.1 µM); in the assay on Staphylococcus aureus [2] it was 8 µg/mL (≈ 22.1 µM); in the assay on Enterococcus faecium it was 8 µg/mL (≈ 22.1 µM); with Enterococcus faecalis, 8 µg/mL (≈ 22.1 µM); against Streptococcus pyogenes it was 4 µg/mL (≈ 11 µM). For the same compound, the outcome in the assay on Escherichia coli and in the assay on Pseudomonas aeruginosa was inactive. Also, the 50% inhibitory concentration (IC50) with J774.A1 is greater than 100 µM.
With `COc1cccc2c1C(=O)C=C[C@]21O[C@@H]2c3c1ccc(O)c3[C@H](O)[C@@H]1O[C@@H]12` [URNUCRATIN C], the MIC in the assay with Staphylococcus aureus [1], with Staphylococcus aureus [2], in the assay with Enterococcus faecium, against Enterococcus faecalis and in the assay on Streptococcus pyogenes was 64 µg/mL (≈ 176 µM) in each case. Also, the result with Escherichia coli and with Pseudomonas aeruginosa was inactive. This compound displayed a concentration for half-maximal inhibition (IC50) in the assay with J774.A1 greater than 100 µM.
Take `CN[C@H](CC(C)C)C(=O)N[C@H]1C(=O)N[C@@H](CC(N)=O)C(=O)N[C@H]2C(=O)N[C@H]3C(=O)N[C@H](C(=O)N[C@H](C(=O)O)c4cc(O)cc(O)c4-c4cc3ccc4O)[C@H](O)c3ccc(c(Cl)c3)Oc3cc2cc(c3O[C@@H]2O[C@H](CO)[C@@H](O)[C@H](O)[C@H]2O[C@H]2C[C@](C)(N)[C@H](O)[C@H](C)O2)Oc2ccc(cc2Cl)[C@H]1O` [VANCOMYCIN]: the minimal inhibitory concentration (MIC) is 64 µg/mL (≈ 44.2 µM) in the assay on Enterococcus faecium, 2 µg/mL (≈ 1.38 µM) against Enterococcus faecalis and 1 µg/mL (≈ 0.69 µM) in the assay with Streptococcus pyogenes.

As usually defined, the IC50 is the concentration at which inhibition is half-maximal. Lower therefore signals inhibition by little substance. A word on the MIC: it is the lowest concentration that inhibits growth of the organism. A high value points to a need for much substance.
